In the supplement of paper PMC10307832:

Legend:
Assay in all cases: relative viability (nuclei count vs DMSO), 5 days (fraction); higher = more cells survive
Tipifarnib + Bortezomib = compound: Cn1cncc1[C@@](N)(c1ccc(Cl)cc1)c1ccc2c(c1)c(-c1cccc(Cl)c1)cc(=O)n2C [Tipifarnib] + CC(C)C[C@H](NC(=O)[C@H](Cc1ccccc1)NC(=O)c1cnccn1)B(O)O [Bortezomib] (partner 0.002 µM)
How it was run: (§1)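 The day after seeding in 1536-well plates, lung cancer cell lines were treated by pin tool with a single drug, or with a fixed anchor-drug dose together with five library-drug doses (not always all listed) in √10 steps. After 5 days, a combined fix-and-stain solution (final 0.05% Triton X-100, 1% formaldehyde, 1 ug/ml Hoechst) was added. Nuclei counted on 4× images gave relative viability as treated counts over vehicle counts, reported as the median of duplicate plates.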

Tipifarnib + Alpelisib = compound: Cn1cncc1[C@@](N)(c1ccc(Cl)cc1)c1ccc2c(c1)c(-c1cccc(Cl)c1)cc(=O)n2C [Tipifarnib] + Cc1nc(NC(=O)N2CCC[C@H]2C(N)=O)sc1-c1ccnc(C(C)(C)C(F)(F)F)c1 [Alpelisib] (partner 2 µM)
How it was run: as §1

Tipifarnib + Pemetrexed = compound: Cn1cncc1[C@@](N)(c1ccc(Cl)cc1)c1ccc2c(c1)c(-c1cccc(Cl)c1)cc(=O)n2C [Tipifarnib] + Nc1nc2[nH]cc(CCc3ccc(C(=O)N[C@@H](CCC(=O)O)C(=O)O)cc3)c2c(=O)[nH]1 [Pemetrexed] (partner 0.2 µM)
How it was run: as §1

Tipifarnib + Olaparib = compound: Cn1cncc1[C@@](N)(c1ccc(Cl)cc1)c1ccc2c(c1)c(-c1cccc(Cl)c1)cc(=O)n2C [Tipifarnib] + O=C(c1cc(Cc2n[nH]c(=O)c3ccccc23)ccc1F)N1CCN(C(=O)C2CC2)CC1 [Olaparib] (partner 8 µM)
How it was run: as §1

Cell Line	relative viability (Tipifarnib + Bortezomib; first compound 0.01 µM)	relative viability (Tipifarnib + Bortezomib; first compound 0.03162 µM)	relative viability (Tipifarnib + Bortezomib; first compound 0.1 µM)	relative viability (Tipifarnib + Bortezomib; first compound 0.3162 µM)	relative viability (Tipifarnib + Bortezomib; first compound 1 µM)	relative viability (Tipifarnib + Alpelisib; first compound 0.01 µM)	relative viability (Tipifarnib + Alpelisib; first compound 0.03162 µM)	relative viability (Tipifarnib + Alpelisib; first compound 0.1 µM)	relative viability (Tipifarnib + Alpelisib; first compound 0.3162 µM)	relative viability (Tipifarnib + Alpelisib; first compound 1 µM)	relative viability (Tipifarnib + Pemetrexed; first compound 0.01 µM)	relative viability (Tipifarnib + Pemetrexed; first compound 0.03162 µM)	relative viability (Tipifarnib + Pemetrexed; first compound 0.1 µM)	relative viability (Tipifarnib + Pemetrexed; first compound 0.3162 µM)	relative viability (Tipifarnib + Pemetrexed; first compound 1 µM)	relative viability (Tipifarnib + Olaparib; first compound 0.01 µM)	relative viability (Tipifarnib + Olaparib; first compound 0.03162 µM)	relative viability (Tipifarnib + Olaparib; first compound 0.1 µM)	relative viability (Tipifarnib + Olaparib; first compound 0.3162 µM)	relative viability (Tipifarnib + Olaparib; first compound 1 µM)
NCI-H2126	1.05	1.07	1.13	1.05	0.669	0.759	0.729	0.799	0.733	0.706	0.666	0.691	0.676	0.642	0.503	0.927	0.885	0.844	0.843	0.879
NCI-H2228	1.2	0.615	0.727	0.577	0.404	0.997	0.475	0.473	0.537	0.371	0.364	0.34	0.361	0.296	0.333	0.84	0.523	0.471	0.386	0.478
NCI-H2347	0.897	0.469	0.751	0.698	0.738	1.05	0.798	0.714	0.689	0.674	0.455	0.446	0.446	0.406	0.398	0.59	0.46	0.563	0.473	0.472
NCI-H2405	0.983	0.909	0.985	0.923	0.61	0.863	0.832	0.7	0.718	0.72	1.03	1.07	0.964	0.967	0.866	0.88	0.899	0.903	0.801	0.838
NCI-H3122	0.967	0.976	0.986	0.833	0.832	0.665	0.598	0.527	0.402	0.401	0.205	0.204	0.199	0.188	0.188	0.685	0.681	0.482	0.422	0.415
PC-3 [JPC-3]	0.873	0.629	0.698	0.609	0.427	1.04	1	0.816	0.78	0.662	1	1.11	0.592	0.448	0.42	1.19	0.978	0.981	0.775	0.654
PC-14	1	0.873	0.555	0.453	0.464	0.99	0.774	0.653	0.392	0.451	0.123	0.154	0.157	0.146	0.149	0.278	0.206	0.279	0.176	0.176
RERF-LC-KJ	1.1	1.1	0.85	0.694	0.717	0.955	0.919	0.592	0.631	0.55	0.474	0.6	0.46	0.427	0.362	0.993	0.898	0.864	0.718	0.699
SK-LU-1	1.12	0.508	0.626	0.614	0.36	1.06	0.655	0.528	0.49	0.516	0.961	0.931	0.723	0.63	0.5	0.527	0.419	0.525	0.395	0.292
SW 1573	1.13	0.752	0.691	0.45	0.49	0.667	0.718	0.449	0.44	0.331	0.781	0.719	0.458	0.383	0.245	0.428	0.305	0.307	0.233	0.27
UMC-11	0.667	0.498	0.465	0.447	0.242	0.939	0.691	0.504	0.409	0.487	0.578	0.65	0.499	0.46	0.424	0.432	0.356	0.357	0.346	0.339
